This note sets out measurements from PMC11836371, “Virtual fragment screening for DNA repair inhibitors in vast chemical space” (Nature Communications, 2025).

Values joined by “and” are separate entries in the source; they are usually repeats but may differ in a detail not shown here. Equal values may be shown once.

A word on the IC50: it is the concentration at which inhibition is half-maximal. Read a high IC50 as weaker potency in that assay.

The target of one assay is APE1 (Homo sapiens, UniProt P27695). Put plainly: biochemical.
The target of a further assay is NEIL1 (Homo sapiens, UniProt Q96FI4). Put plainly: biochemical.
Another assay concerns the target MTH1 (Homo sapiens, UniProt P36639). Put plainly: biochemical.
The next assay addresses T1, OGG1 in HL60 cells (Homo sapiens, UniProt O15527).
T1 construct: endogenous in cells; host or cells: HL60
Put plainly: Cellular thermal shift assay (CETSA). The assay is classed as cell-based. The procedure: CETSA experiments were carried out with intact HL60 cells treated in culture. Cells were seeded at a density of 350 000 cells/mL and treated with DMSO (0.01%, v/v) or 20 µM test compound for 2 h at 37 °C and 5% CO2 in a humidified incubator. Cells were washed once in 1x TBS (50 mM Tris-HCl, pH 7.6, 150 mM NaCl), resuspended in 1x TBS supplemented with protease inhibitors (Roche), and then divided into 30-µL aliquots corresponding to approximately 600,000 cells per sample in PCR strip tubes. Cells were heated in a Veriti Thermal Cycler (Applied Biosystems) for 3 min at indicated temperatures (temperature interval consisting of 2 °C increases, starting from 40 °C up to 62 °C) and cooled for 5 min at room temperature to allow precipitation of denatured proteins. 5x NP-40 buffer was added to the samples and cells were lysed by performing three freeze–thaw cycles at −80 °C for 3 min and at 37 °C for 3 min with gentle vortexing between the cycles. Cell lysates were then centrifuged at 17,000 g and 4 °C for 30 min to remove cellular debris and insoluble proteins. Supernatant was prepared for western blot analysis according to standard procedures. […]

Chain of APE1 (P27695 whole entry, species assumed): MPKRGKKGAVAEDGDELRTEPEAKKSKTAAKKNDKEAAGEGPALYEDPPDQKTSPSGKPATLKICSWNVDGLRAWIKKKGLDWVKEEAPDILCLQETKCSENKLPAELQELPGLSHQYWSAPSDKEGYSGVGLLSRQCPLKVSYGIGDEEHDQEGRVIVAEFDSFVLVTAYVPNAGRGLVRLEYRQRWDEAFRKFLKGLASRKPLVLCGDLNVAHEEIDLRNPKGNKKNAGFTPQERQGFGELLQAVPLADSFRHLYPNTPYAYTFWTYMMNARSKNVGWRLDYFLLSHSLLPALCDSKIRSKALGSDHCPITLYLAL
T1 sequence (O15527 whole entry): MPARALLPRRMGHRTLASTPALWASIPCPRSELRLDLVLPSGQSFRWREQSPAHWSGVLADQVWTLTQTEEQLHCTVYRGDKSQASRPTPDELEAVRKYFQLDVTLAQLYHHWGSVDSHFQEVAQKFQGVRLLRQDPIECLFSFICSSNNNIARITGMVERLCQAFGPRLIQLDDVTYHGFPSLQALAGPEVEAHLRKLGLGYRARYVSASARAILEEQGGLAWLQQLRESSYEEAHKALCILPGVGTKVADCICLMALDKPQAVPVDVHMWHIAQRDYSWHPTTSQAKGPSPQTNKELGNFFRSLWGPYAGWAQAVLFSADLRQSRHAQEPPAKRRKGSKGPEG
Chain of NEIL1 (Q96FI4 whole entry, species assumed): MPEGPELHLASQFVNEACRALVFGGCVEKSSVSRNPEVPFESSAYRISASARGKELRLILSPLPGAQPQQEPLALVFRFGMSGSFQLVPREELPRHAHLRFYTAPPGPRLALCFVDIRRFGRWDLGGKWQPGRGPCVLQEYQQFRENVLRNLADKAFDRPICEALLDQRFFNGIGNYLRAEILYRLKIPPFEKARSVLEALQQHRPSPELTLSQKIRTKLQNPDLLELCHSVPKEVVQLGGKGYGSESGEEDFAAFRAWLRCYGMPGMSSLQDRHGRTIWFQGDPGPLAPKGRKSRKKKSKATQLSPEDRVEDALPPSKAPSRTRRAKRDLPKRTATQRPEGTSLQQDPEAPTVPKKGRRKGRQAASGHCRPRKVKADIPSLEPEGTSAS
Protocol for APE1: (§1) Inhibition of the following enzymes was assessed in the selectivity assays: apurinic/apyrimidinic endonuclease (APE1), endonuclease 8-like 1 (NEIL1), oxidized purine nucleoside triphosphate hydrolase (MTH1) and single-strand selective monofunctional uracil DNA glycosylase (SMUG1). BER enzymes were assayed with a similar strategy as OGG1, using identical DNA sequences surrounding the substrate lesion and the same reaction buffer containing 2 nM APE1. To assess SMUG1 inhibition, a 375 nM substrate containing uracil opposite guanine and 0.3 U SMUG1 enzyme (M0336 from New England Biolabs) was used. To assess NEIL1 inhibition, a 20 nM substrate containing thymidine glycol opposite adenine and 10 nM NEIL1 was used. […] All BER inhibition assays were in the linear range and less than 40% of the total substrate had been consumed at readout. The experiments were performed in three independent replicates and the percentage inhibition was calculated relative to the signal of a DMSO-treated control. […] The produced free phosphate was then detected using the malachite green assay[76]. […] Absorbance was read at 630 nm using a Hidex Sense plate reader after a period of incubation with the methylene green reagent of 15 minutes. The experiment was performed in three independent replicates and percentage inhibition was calculated relative to the signal of a DMSO-treated control.
Protocol for MTH1: Inhibition of the following enzymes was assessed in the selectivity assays: apurinic/apyrimidinic endonuclease (APE1), endonuclease 8-like 1 (NEIL1), oxidized purine nucleoside triphosphate hydrolase (MTH1) and single-strand selective monofunctional uracil DNA glycosylase (SMUG1). BER enzymes were assayed with a similar strategy as OGG1, using identical DNA sequences surrounding the substrate lesion and the same reaction buffer containing 2 nM APE1. To assess SMUG1 inhibition, a 375 nM substrate containing uracil opposite guanine and 0.3 U SMUG1 enzyme (M0336 from New England Biolabs) was used. To assess NEIL1 inhibition, a 20 nM substrate containing thymidine glycol opposite adenine and 10 nM NEIL1 was used. To assess APE1 inhibition, an UNG2 substrate was pre-treated with E. coli Uracil-DNA glycosylase (New England Biolabs M0280) to generate an AP-site opposite adenine, which was used at 10 nM concentration in the presence of 0.1 nM APE1. All BER inhibition assays were in the linear range and less than 40% of the total substrate had been consumed at readout. The experiments were performed in three independent replicates and the percentage inhibition was calculated relative to the signal of a DMSO-treated control. To assess MTH1 inhibition, MTH1-catalyzed dGTP hydrolysis was coupled to inorganic pyrophosphatase (PPase), thereby releasing inorganic phosphate. The produced free phosphate was then detected using the malachite green assay[76]. […] Substrate concentration at the Km value for the respective substrate was chosen if possible. Inhibition using 100 μM compound was tested in reaction buffer (100 mM Tris-Acetate pH 8.0, 10 mM magnesium acetate, 40 mM NaCl, 1 mM DTT, and 0.005% Tween-20). Samples were incubated with shaking at 22 °C for 15 minutes. The reaction was then stopped by the addition of the malachite green reagent[76]. Absorbance was read at 630 nm using a Hidex Sense plate reader after a period of incubation with the methylene green reagent of 15 minutes. The experiment was performed in three independent replicates and percentage inhibition was calculated relative to the signal of a DMSO-treated control.
Protocol for NEIL1: as §1

`Cc1nc(-c2ccc(CC(=O)Nc3noc4c3CCCC4)cc2)c(C)[nH]1` [compound 17]: the IC50 against APE1 is > 99 µM; on NEIL1, > 99 µM; against MTH1, 24.3 µM and 20.6 µM and 24.9 µM.

On to `Cc1nc(-c2cc(F)c(CC(=O)Nc3noc4c3CCCC4)c(F)c2)c(C)[nH]1` [compound 23], for which, on OGG1 in HL60 cells, the “thermal stabilization of OGG1 in cells (CETSA)” value is given as “strong thermal stabilization”.
